Data from patent US7772252B2, “Heterocyclic substituted carbonyl derivatives and their use as dopamine D3 receptor ligands” (Aventis Pharmaceuticals Inc., priority 2001, dated 2010).
pKi: −log10 of the molar value. Like-named read-outs stand apart in the source and are kept apart here.

Target: T1, cloned human dopamine D3 receptors (Homo sapiens, UniProt P35462)
T1 construct: expressed in transfected cells; membrane homogenate
Test: [N-Methyl-3H]Spiroperidol binding to cloned human dopamine D3 receptors
Details: read-out: d3Ki
Method in brief: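 Stably transfected CHO cells expressing cloned human D3 receptor were used as membranes homogenized in 10% DMSO. Ligand was [N-methyl-3H]spiroperidol displacement.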

T1 sequence (P35462 whole entry): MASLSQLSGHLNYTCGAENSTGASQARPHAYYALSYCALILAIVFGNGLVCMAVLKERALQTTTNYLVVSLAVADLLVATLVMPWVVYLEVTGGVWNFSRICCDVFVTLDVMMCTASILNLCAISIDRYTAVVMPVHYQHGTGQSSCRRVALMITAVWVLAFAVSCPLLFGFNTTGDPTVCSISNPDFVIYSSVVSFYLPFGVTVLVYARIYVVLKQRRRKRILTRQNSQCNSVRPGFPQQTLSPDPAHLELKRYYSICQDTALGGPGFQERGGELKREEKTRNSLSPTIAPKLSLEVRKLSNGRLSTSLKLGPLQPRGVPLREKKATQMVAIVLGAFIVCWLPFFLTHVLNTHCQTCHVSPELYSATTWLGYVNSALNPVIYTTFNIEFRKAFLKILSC

Row | Compound | pKi | pKi (Table 2, D3 receptor binding)
1 | O=C(CCCN1CCN(c2csc3cc(F)ccc23)CC1)N(CCO)C1CCCCC1 [compound 826850] | 7.73 | 
2 | O=C(CCCN1CCN(c2csc3cc(C(F)(F)F)ccc23)CC1)N1CCCC1 [compound 826819] | 7.94 | 
3 | O=C(CCCN1CCN(c2csc3cc(C(F)(F)F)ccc23)CC1)N(CCO)C1CCCCC1 [compound 826810] | 7.06 | 
4 | CC1CCCC(NC(=O)CCCN2CCN(c3csc4cc(C(F)(F)F)ccc34)CC2)C1 (racemic) [compound 826807] | 7.37 | 
5 | CN(C(=O)CCCN1CCN(c2csc3cc(C(F)(F)F)ccc23)CC1)C1CCCCC1 [compound 826808] | 7.76 | 
6 | CCN(C(=O)CCCN1CCN(c2csc3cc(F)ccc23)CC1)C1CCCCC1 [compound 826849] | 7.27 | 
7 | CC1CC(C)CN(C(=O)CCCN2CCN(c3csc4cc(C(F)(F)F)ccc34)CC2)C1 (stereo not drawn) [compound 826818] | 7.53 | 
8 | CC1CCCN(C(=O)CCCN2CCN(c3csc4cc(C(F)(F)F)ccc34)CC2)C1 (stereo not drawn) [compound 826815] |  | 7.50
9 | O=C(CCCN1CCN(c2csc3cc(C(F)(F)F)ccc23)CC1)NC1CCCC1 [compound 826820] | 7.28 | 
10 | CC1CCN(C(=O)CCCN2CCN(c3csc4cc(C(F)(F)F)ccc34)CC2)CC1 [compound 826814] |  | 7.99
11 | CCOC(=O)C1CCN(C(=O)CCCN2CCN(c3csc4cc(C(F)(F)F)ccc34)CC2)CC1 [compound 826811] | 7.39 | 
12 | O=C(CCCN1CCN(c2csc3cc(F)ccc23)CC1)NC1CCCC1 (racemic) [compound 826860] | 8.46 | 
13 | O=C(CCCN1CCN(c2csc3cc(C(F)(F)F)ccc23)CC1)N1CCC(N2CCCC2)CC1 [compound 826816] | 7.58 | 
14 | CN(C(=O)CCCN1CCN(c2csc3cc(F)ccc23)CC1)C1CCCCC1 [compound 826848] | 8.36 | 
15 | CC1CCCCN1C(=O)CCCN1CCN(c2csc3cc(C(F)(F)F)ccc23)CC1 (stereo not drawn) [compound 826813] |  | 8.29
16 | O=C(CCCN1CCN(c2csc3cc(C(F)(F)F)ccc23)CC1)N1CCC(O)CC1 [compound 826812] |  | 8.14
17 | CN(C)C1CCN(C(=O)CCCN2CCN(c3csc4cc(C(F)(F)F)ccc34)CC2)C1 (stereo not drawn) [compound 826823] | 7.72 | 
18 | CCOC(=O)[C@H]1CC[C@H](NC(=O)CCCN2CCN(c3csc4cc(F)ccc34)CC2)CC1 [compound 826845] | 8.35 | 
19 | CC1CC(C)CN(C(=O)CCCN2CCN(c3csc4cc(F)ccc34)CC2)C1 (stereo not drawn) [compound 826858] | 8.43 | 
20 | O=C(CCCN1CCN(c2csc3cc(C(F)(F)F)ccc23)CC1)NC1CCCCC1 [compound 826821] | 7.15 | 
21 | CC[C@H]1CC[C@H](NC(=O)CCCN2CCN(c3csc4cc(F)ccc34)CC2)CC1 [compound 826846] | 7.75 | 

Other lines, results leading:

Row | pKi | pKi (Table 2, D3 receptor binding) | Compound
22 | 8.54 |  | O=C(CCCN1CCN(c2csc3cc(F)ccc23)CC1)NC1CCCCC1 [compound 826861]
23 | 8.56 |  | CCOC(=O)C1CCN(C(=O)CCCN2CCN(c3csc4cc(F)ccc34)CC2)CC1 [compound 826851]
24 | 9.02 |  | CC1CCCN1C(=O)CCCN1CCN(c2csc3cc(F)ccc23)CC1 (stereo not drawn) [compound 826862]
25 | 9.00 |  | CC1CCCC(NC(=O)CCCN2CCN(c3csc4cc(F)ccc34)CC2)C1 (stereo not drawn) [compound 826847]
26 | 9.94 |  | CC1CCN(C(=O)CCCN2CCN(c3csc4cc(F)ccc34)CC2)CC1 [compound 826854]
27 | 9.23 |  | C[C@H]1CC[C@H](NC(=O)CCCN2CCN(c3csc4cc(F)ccc34)CC2)CC1 [compound 826844]
28 | 9.89 |  | CC1CCCCN1C(=O)CCCN1CCN(c2csc3cc(F)ccc23)CC1 (stereo not drawn) [compound 826853]
29 | 9.24 |  | CC1CCCN(C(=O)CCCN2CCN(c3csc4cc(F)ccc34)CC2)C1 (stereo not drawn) [compound 826855]
30 | 8.55 |  | CC1CCCN1C(=O)CCCN1CCN(c2csc3cc(C(F)(F)F)ccc23)CC1 (stereo not drawn) [compound 826822]
31 | 8.45 |  | O=C(CCCN1CCN(c2csc3cc(F)ccc23)CC1)N1CCCC1 [compound 826859]
32 | 8.74 |  | O=C(CCCN1CCN(c2csc3cc(F)ccc23)CC1)N1CCC(N2CCCC2)CC1 [compound 826856]
33 | 8.45 |  | O=C(CCCN1CCN(c2csc3cc(F)ccc23)CC1)N1CCC(O)CC1 [compound 826852]
